{"source": "paper PMC11428108", "about": "(Frontiers in Molecular Neuroscience, 2024)", "key": {"[1]": {"assay": "Brain penetration: plasma and brain levels 120 min after oral dosing", "assay_type": "in vivo, C57BL/6J mice", "settings": "C57BL/6J, mouse, 20 mg kg^−1 PO", "procedure": "Mice prepared with intravenous catheters and treated with SR9883 via oral (10 mg kg^−1) or intravenous (1 mg kg^−1) routes of administration. Blood samples were collected up to 240 min after treatment into lithium heparin coated tubes (Ram Scientific) and stored on wet ice. Blood samples were later centrifuged for 3 min at 5,000 RPM to separate plasma from red blood cells. Plasma was collected into a fresh tube and stored at −80°C. A separate group of mice was treated with SR9883 (20 mg kg^−1 PO) and killed by cervical dislocation 120 min later. Their brains were collected and stored at −80°C. SR9883 levels were quantified in plasma and brain by mass spectrometry using an ABSciex 5,500 instrument and using multiple reaction monitoring as previously described ([Radnai et al., 2021]). Brain samples were homogenized in saline and then immediately treated with twice the amount (v:v) of acetonitrile to extract the compound. Plasma samples were directly treated with acetonitrile. Samples were filtered through a 0.2 μm filter plate prior to injection onto the LC–MS/MS as previously described ([Radnai et al., 2021])."}, "[2]": {"system": "Chrna5^+/+ and Chrna5^−/− mice", "assay": "Open-field locomotor activity, SR9883 alone or with nicotine", "assay_type": "in vivo", "settings": "for Cumulative distance traveled during 60 min session: SR9883 5 or 10 mg kg^−1 IP", "procedure": "Locomotor activity was assessed in an open-field apparatus (40 cm × 40 cm; Omnitech Electronics Inc.) under low illumination (~30 radiometric lux). Mice were habituated to the apparatus for 60 min on the day before treatments commenced. On test days, mice received a total of two systemic injections. First, mice were injected intraperitoneally with SR9883 (0, 5, 10 mg kg^−1) and returned to their home cages. […] Mice were then placed in the center of the apparatus and the total distance they traveled was recorded for 60 min (Fusion software, Omnitech Electronics Inc.). Concentration-response curves of SR9883 actions in nAChR-expressing HEK cells and oocytes were fitted to the Hill equation using a nonlinear least squares curve fit method and efficacy and potency values were calculated as previously described ([Wang et al., 2015]). Plasma and brain levels of SR9983 after oral administration were compared using a two-tailed paired t test. […] For the ICSS threshold experiment, percentages of baseline reward threshold scores were calculated by expressing the absolute threshold scores as a percentage of the scores obtained during baseline. The baseline values were the mean thresholds on the three sessions prior to drug injections. Response latency data were analyzed in the same manner as the threshold data. […] Effects of SR9883 on responding for food pellets in rats was analyzed by a two-tailed paired t test. […] Significant main or interaction effects in ANOVAs were followed by Bonferroni or Newman–Keuls post-hoc tests as appropriate. All statistical analyses were performed using GraphPad Prism software with α set to 0.05."}, "[3]": {"system": "human (α3)2(β4)2α3/β4 (α3β4*) nAChRs", "assay": "FLEXstation membrane potential assay in HEK cells stably expressing α3β4* nAChRs", "assay_type": "cell-based", "settings": "SR9883 0.0005–10 μM", "from_the_text": "Human embryonic kidney (HEK) cell lines stably expressing human (α4)2(β2)2β2/α4 (α4β2*) nAChRs, (α4)2(β2)2α5 nAChRs, (α4)2(β2)2β3 nAChRs, (α3)2(β4)2α3/β4 (α3β4*) nAChRs, (α3)2(β2)2α3/β2 (α3β2*) nAChRs, (α3)2(β4)2α5 nAChRs, or (α3)2(β2)2α5 nAChRs were maintained as described previously ([Wang et al., 2015]; [Kuryatov et al., 2005]; [Caligiuri et al., 2022]). The FLEXstation bench top scanning fluorometer from Molecular Devices was used to assay nAChR function in these cells, according to published protocols ([Wang et al., 2015]; [Kuryatov et al., 2005]). The membrane potential kit (Molecular Devices) was used according to the manufacturer’s protocols. Serial dilutions of SR9883 were manually added to the assay plate 15 min prior to recording. […] Potency and efficacy were calculated using the Hill equation as described previously ([Wang et al., 2015]).\nConcentration-response curves of SR9883 actions in nAChR-expressing HEK cells and oocytes were fitted to the Hill equation using a nonlinear least squares curve fit method and efficacy and potency values were calculated as previously described ([Wang et al., 2015]). […] For the ICSS threshold experiment, percentages of baseline reward threshold scores were calculated by expressing the absolute threshold scores as a percentage of the scores obtained during baseline. […] Response latency data were analyzed in the same manner as the threshold data. […]"}}, "note": "Where “and” joins values, the source holds several entries; their conditions need not be identical. Equal entries are not always repeated. Entries after “also recorded” stand apart in the source; their conditions may differ. Where two headings read alike, the source gives them in different places."}
{"smiles": "N#Cc1cccc(-n2nnc(-c3cccnc3)n2)c1", "note": "[SR9883, 3-(5-(pyridin-3-yl)-2H-tetrazol-2-yl)benzonitrile]", "values": [{"measurement": "concentration at 120 min", "setting": "[1]; brain, read-out: Brain SR9883 level", "result": "~4.5 µM and ~1100 ng/mL"}, {"measurement": "concentration at 120 min", "setting": "[1]; plasma, read-out: Plasma SR9883 level", "result": "~2600 ng/mL and ~11 µM"}, {"measurement": "Locomotor activity (total distance traveled) vs vehicle", "setting": "[2]; SR9883 5 mg kg^−1, nicotine-injected Chrna5^+/+ and Chrna5^−/− mice, p = 0.0002", "result": "reduced"}, {"measurement": "Locomotor activity (total distance traveled) vs vehicle", "setting": "[2]; SR9883 10 mg kg^−1, nicotine-injected Chrna5^+/+ and Chrna5^−/− mice, p = 0.0049", "result": "reduced"}, {"measurement": "Cumulative distance traveled during 60 min session", "setting": "[2]; nicotine (0.25 mg kg^−1 SC)-injected Chrna5^+/+ mice, Dose x Time p = 0.0047", "result": "decreased"}, {"measurement": "Cumulative distance traveled during 60 min session", "setting": "[2]; nicotine (0.25 mg kg^−1 SC)-injected Chrna5^−/− mice, Dose x Time p = 0.0946, not significant", "result": "tended to be decreased"}, {"measurement": "Cumulative distance traveled during 60 min session", "setting": "[2]; saline-injected Chrna5^+/+ mice", "result": "unchanged"}, {"measurement": "Cumulative distance traveled during 60 min session", "setting": "[2]; saline-injected Chrna5^−/− mice", "result": "unchanged"}, {"measurement": "EC50 (enhancement of response to EC20-30 nicotine)", "setting": "[3]", "result": "no effect; also recorded: No enhancement"}]}
